Test results from PubChem BioAssay AID328 (DTP/NCI, 2004).
Several values for one entry are separate records, joined by “and”; a condition that tells them apart may be missing. Identical values can stand only once. Toxic doses and inconclusive results are not listed.

System: BDF1 mice, P388 leukemia ip, median survival T/C
Test: NCI In Vivo Anticancer Drug Screen. Data for tumor model P388 Leukemia (intraperitoneal) in B6D2F1 (BDF1) mice
Conditions: endpoint: median survival time, higher = longer survival
How it was run: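 Transplantable tumour in mice; compound vs vehicle dosing; survival scored; ratio of treated to control reported.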

[1] = dose: 6.25 mg/kg/injection, schedule: Q01DX009 (ip), vehicle: saline
[2] = dose: 12.5 mg/kg/injection, schedule: Q01DX009 (ip), vehicle: saline
[3] = dose: 25.0 mg/kg/injection, schedule: Q01DX009 (ip), vehicle: saline
[4] = dose: 50.0 mg/kg/injection, schedule: Q01DX009 (ip), vehicle: saline
[5] = dose: 100.0 mg/kg/injection, schedule: Q01DX009 (ip), vehicle: saline
[6] = dose: 200.0 mg/kg/injection, schedule: Q01DX009 (ip), vehicle: saline
[7] = dose: 100.0 mg/kg/injection, schedule: Q04DX003 (ip), vehicle: saline with Tween-80
[8] = dose: 200.0 mg/kg/injection, schedule: Q04DX003 (ip), vehicle: saline with Tween-80
[9] = dose: 400.0 mg/kg/injection, schedule: Q04DX003 (ip), vehicle: saline with Tween-80
[10] = dose: 50.0 mg/kg/injection, schedule: Q01DX009 (ip), vehicle: saline with Tween-80
[11] = dose: 100.0 mg/kg/injection, schedule: Q01DX009 (ip), vehicle: saline with Tween-80
[12] = dose: 200.0 mg/kg/injection, schedule: Q01DX009 (ip), vehicle: saline with Tween-80
[13] = dose: 25.0 mg/kg/injection, schedule: Q01DX009 (ip), vehicle: saline with Tween-80
[14] = dose: 50.0 mg/kg/injection, schedule: Q04DX003 (ip), vehicle: saline with Tween-80
[15] = dose: 100.0 mg/kg/injection, schedule: Q04DX003 (ip), vehicle: saline
[16] = dose: 200.0 mg/kg/injection, schedule: Q04DX003 (ip), vehicle: saline
[17] = dose: 10.0 mg/kg/injection, schedule: Q04DX003 (ip), vehicle: saline

`CC1(C)C=CN2C(=O)C3=CCCN3C(=O)C2CC12Nc1ccccc1C2=O` (stereo not given) was tested, and the T/C [1] was 94 % of control, the T/C [2] was 104 % of control and the T/C [3] was 110 % of control. For the same compound, the T/C [4] was 100 % of control.
`O=C(O)C1=NNC(C(=O)O)=NN1` was tested, and the T/C [4] was 98 % of control, the T/C [5] was 100 % of control and the T/C [6] was 98 % of control.
With `CC(C)CCCC(C)CCO` (stereo not given) the T/C [4] was 100 % of control, the T/C [5] was 100 % of control and the T/C [6] was 101 % of control.
For `Cc1ccccc1OS(=O)(=O)c1ccccc1[N+](=O)[O-]`, the T/C (dose: 100.0 mg/kg/injection, schedule: Q01DX001 (ip), vehicle: saline sonified) was 100 % of control, the T/C (dose: 200.0 mg/kg/injection, schedule: Q01DX001 (ip), vehicle: saline sonified) was 110 % of control and the T/C (dose: 400.0 mg/kg/injection, schedule: Q01DX001 (ip), vehicle: saline sonified) was 105 % of control.
With `O=C1CN(c2ccccc2)CC(=O)N2CCCN12` the T/C (dose: 50.0 mg/kg/injection, schedule: Q01DX005 (ip), vehicle: saline with Tween-80) was 92 % of control and the T/C (dose: 200.0 mg/kg/injection, schedule: Q01DX005 (ip), vehicle: saline with Tween-80) was 88 % of control.
In the case of `CCc1ccccc1NC(=O)c1cccc(Cl)c1`, the T/C [7] is reported as 95 % of control, the T/C [8] is reported as 100 % of control and the T/C [9] is reported as 104 % of control.
With `CC(/C=N/NC(N)=S)Cc1ccc(C(C)C)cc1` (stereo not given) the T/C (dose: 7.0 mg/kg/injection, schedule: Q01DX009 (ip), vehicle: saline with Tween-80) was 110 % of control, the T/C (dose: 7.0 mg/kg/injection, schedule: Q04DX003 (ip), vehicle: saline with Tween-80) was 100 % of control and the T/C (dose: 14.0 mg/kg/injection, schedule: Q01DX009 (ip), vehicle: saline with Tween-80) was 115 % of control. For the same compound, the T/C (dose: 14.0 mg/kg/injection, schedule: Q04DX003 (ip), vehicle: saline with Tween-80) was 104 % of control and the T/C (dose: 28.0 mg/kg/injection, schedule: Q04DX003 (ip), vehicle: saline with Tween-80) was 95 % of control.
In the case of `CCOC(=O)CCC1(C(=O)OCC)Oc2ccc(Cl)cc2C1=O` (stereo not given), the T/C [10] is reported as 106 % of control, the T/C [11] is reported as 93 % of control and the T/C [12] is reported as 108 % of control.
`Cc1cc(=O)c2c(C)cccc2[nH]1` was tested, and the T/C (dose: 6.25 mg/kg/injection, schedule: Q04DX003 (ip), vehicle: saline sonified) was 104 % of control, the T/C (dose: 12.5 mg/kg/injection, schedule: Q04DX003 (ip), vehicle: saline sonified) was 109 % of control and the T/C [13] was 113 % of control. The T/C (dose: 25.0 mg/kg/injection, schedule: Q04DX003 (ip), vehicle: saline sonified) was 100 % of control.
In the case of `O=C(O)c1ccc(C(=O)O)c(C(=O)O)c1.[NH-]C1CCCCC1[NH-].[Pt+2]`, the T/C (dose: 30.0 mg/kg/injection, schedule: Q01DX001 (ip), vehicle: sodium bicarbonate) is reported as 164 % of control and the T/C (dose: 50.0 mg/kg/injection, schedule: Q01DX001 (ip), vehicle: sodium bicarbonate) is reported as 162 % of control.
In the case of `CCOC(=O)N/N=C\c1cc(OC)c(OC)c(OC)c1`, the T/C (dose: 6.25 mg/kg/injection, schedule: Q01DX009 (ip), vehicle: saline with Tween-80) is reported as 95 % of control, the T/C (dose: 12.5 mg/kg/injection, schedule: Q01DX009 (ip), vehicle: saline with Tween-80) is reported as 90 % of control and the T/C [13] is reported as 90 % of control. For the same compound, the T/C [10] was 90 % of control, the T/C [14] was 100 % of control and the T/C [7] was 108 % of control. The T/C [8] was 104 % of control.
With `COc1ccc2c(c1)CCC(C)(C#N)C2=O` (stereo not given) the T/C [13] was 100 % of control, the T/C [10] was 100 % of control and the T/C [11] was 104 % of control.
For `CC1(C)CCc2c(ccc(C(=O)/C=C\c3ccccc3)c2O)O1`, the T/C (dose: 1.25 mg/kg/injection, schedule: Q01DX009 (ip), vehicle: Klucel (hydroxypropylcellulose) (HPC)) was 109 % of control, the T/C (dose: 2.5 mg/kg/injection, schedule: Q01DX009 (ip), vehicle: Klucel (hydroxypropylcellulose) (HPC)) was 107 % of control and the T/C (dose: 5.0 mg/kg/injection, schedule: Q01DX009 (ip), vehicle: Klucel (hydroxypropylcellulose) (HPC)) was 102 % of control. For the same compound, the T/C (dose: 10.0 mg/kg/injection, schedule: Q01DX009 (ip), vehicle: Klucel (hydroxypropylcellulose) (HPC)) was 107 % of control, the T/C (dose: 20.0 mg/kg/injection, schedule: Q01DX009 (ip), vehicle: Klucel (hydroxypropylcellulose) (HPC)) was 100 % of control and the T/C (dose: 40.0 mg/kg/injection, schedule: Q01DX009 (ip), vehicle: Klucel (hydroxypropylcellulose) (HPC)) was 91 % of control.
`O=C(Nc1ccccc1F)Nc1ccccc1Cl` was tested, and the T/C (dose: 25.0 mg/kg/injection, schedule: Q01DX009 (ip), vehicle: Klucel (hydroxypropylcellulose) (HPC)) was 110 % of control and 112 % of control, the T/C (dose: 50.0 mg/kg/injection, schedule: Q01DX009 (ip), vehicle: Klucel (hydroxypropylcellulose) (HPC)) was 86 % of control and 105 % of control and the T/C (dose: 100.0 mg/kg/injection, schedule: Q01DX009 (ip), vehicle: Klucel (hydroxypropylcellulose) (HPC)) was 101 % of control and 110 % of control. For the same compound, the T/C (dose: 200.0 mg/kg/injection, schedule: Q01DX009 (ip), vehicle: Klucel (hydroxypropylcellulose) (HPC)) was 97 % of control and 120 % of control and the T/C (dose: 400.0 mg/kg/injection, schedule: Q01DX009 (ip), vehicle: Klucel (hydroxypropylcellulose) (HPC)) was 106 % of control and 107 % of control and 117 % of control.
In the case of `C=CCNC(=S)N/N=C\c1cc(OC)c(OC)c(OC)c1`, the T/C [10] is reported as 95 % of control, the T/C [11] is reported as 100 % of control and the T/C [12] is reported as 90 % of control.
In the case of `CNC(=O)OCCN(CCOC(=O)NC)C(=O)N1c2ccccc2Sc2ccccc21`, the T/C [13] is reported as 95 % of control and 107 % of control, the T/C [10] is reported as 98 % of control and the T/C [11] is reported as 98 % of control and 116 % of control. The T/C [12] was 115 % of control.
In the case of `CCC(C)C(NC(=O)OCc1ccccc1)C(=O)ON1C(=O)CCC1=O` (stereo not given), the T/C [7] is reported as 118 % of control and the T/C [9] is reported as 109 % of control.
With `Cc1nccnc1N` the T/C [1] was 94 % of control, the T/C [2] was 105 % of control and the T/C [3] was 102 % of control. The T/C [4] was 102 % of control, the T/C (dose: 50.0 mg/kg/injection, schedule: Q04DX003 (ip), vehicle: saline) was 94 % of control and the T/C [5] was 105 % of control. The T/C [15] was 98 % of control and 102 % of control, the T/C (dose: 150.0 mg/kg/injection, schedule: Q04DX003 (ip), vehicle: saline) was 88 % of control and the T/C [16] was 100 % of control and 124 % of control. For the same compound, the T/C (dose: 300.0 mg/kg/injection, schedule: Q04DX003 (ip), vehicle: saline) was 100 % of control.
`CC1(C)OC1[Si](C)(C)C` (stereo not given) was tested, and the T/C [10] was 107 % of control, the T/C [11] was 121 % of control and the T/C [12] was 111 % of control.
In the case of `ClC1=C(Cl)C2(Cl)C3C4CC(C5OC45)C3C1(Cl)C2(Cl)Cl` (stereo not given), the T/C (dose: 3.13 mg/kg/injection, schedule: Q01DX009 (ip), vehicle: suspension in saline) is reported as 96 % of control.
For `CC(=N\O)/C(C)=N/O.CC(=N\O)/C(C)=N/O.[Cl][Rh][Cl]`, the T/C [3] was 94 % of control, the T/C [4] was 119 % of control and the T/C [5] was 95 % of control and 119 % of control. For the same compound, the T/C [6] was 100 % of control.
For `OCc1cccc(F)c1`, the T/C [5] was 96 % of control, the T/C [15] was 109 % of control and the T/C [6] was 107 % of control. The T/C [16] was 109 % of control and the T/C (dose: 400.0 mg/kg/injection, schedule: Q04DX003 (ip), vehicle: saline) was 104 % of control.
In the case of `CC(C)c1ccc(O)c(=O)cc1`, the T/C (dose: 40.0 mg/kg/injection, schedule: Q01DX010 (ip), vehicle: carboxymethylcellulose (CMC)) is reported as 95 % of control, the T/C (dose: 80.0 mg/kg/injection, schedule: Q01DX010 (ip), vehicle: carboxymethylcellulose (CMC)) is reported as 100 % of control and the T/C (dose: 160.0 mg/kg/injection, schedule: Q01DX010 (ip), vehicle: carboxymethylcellulose (CMC)) is reported as 100 % of control.
`C=C(Cl)C(=O)OCC` was tested, and the T/C (dose: 5.0 mg/kg/injection, schedule: Q04DX003 (ip), vehicle: saline) was 100 % of control, the T/C [17] was 109 % of control and the T/C (dose: 20.0 mg/kg/injection, schedule: Q04DX003 (ip), vehicle: saline) was 100 % of control.
For `CCN(CC)c1ccc2cc3ccc(=[N+](CC)CC)cc-3oc2c1`, the T/C (dose: 2.5 mg/kg/injection, schedule: Q01DX009 (ip), vehicle: saline) was 120 % of control, the T/C (dose: 7.5 mg/kg/injection, schedule: Q01DX009 (ip), vehicle: saline sonified) was 120 % of control and the T/C [17] was 104 % of control.
With `ClCCN(CCCl)c1ccc(/C=C\c2ccnc3ccccc23)cc1` the T/C [11] was 104 % of control and the T/C [12] was 86 % of control.
In the case of `CC(=O)N=C1C=C(NC(C)=O)C(=O)c2ncccc21`, the T/C [14] is reported as 109 % of control, the T/C [7] is reported as 122 % of control and the T/C [8] is reported as 86 % of control.
For `CN(C)c1ccc(/C=C\c2cc(/C=C/c3ccc(N(C)C)cc3)nc3ccccc23)cc1`, the T/C [10] was 103 % of control, the T/C [11] was 116 % of control and the T/C [12] was 120 % of control.
With `COc1ccc2c(c1)C1CN(Cc3ccccc31)C2` (stereo not given) the T/C (dose: 50.0 mg/kg/injection, schedule: Q01DX001 (ip), vehicle: saline with Tween-80) was 96 % of control, the T/C (dose: 100.0 mg/kg/injection, schedule: Q01DX001 (ip), vehicle: saline with Tween-80) was 99 % of control and the T/C (dose: 200.0 mg/kg/injection, schedule: Q01DX001 (ip), vehicle: saline with Tween-80) was 89 % of control.
